pKi: −log10 of the molar value.
Assays:
cathepsin S = cathepsin S (Homo sapiens, UniProt P25774); test: Measurement of Cathepsin S inhibitory activity; assay type: biochemical; conditions: pH 6.5, 37° C.
Description: (iii) Measurement of Cathepsin S Inhibitory Activity
10 μL of synthesized substrate (carbobenzoxy-L-leucyl-L-leucyl-L-arguinine-4-methyl-chromanyl-7-amide) solution and 5 μL of cysteine protease inhibitor solution of several concentrations, 75)L of cathepsin S enzyme reaction buffer (100 mmol/L of sodium phosphate, 2 mmol/L of EDTA, 2 mmol/L of DTT were mixed to adjust to pH 6.5) and 10 μL of cathepsin S enzyme solution were mixed and the increase of fluorescence intensity was measured (λ ex(excitation wavelength)=355 nm, λ em (fluorescence wavelength)=460 nm) when reacted at 37° C.

Cathepsin K = biological target: T1, Cathepsin K (Homo sapiens, UniProt P43235); test: Measurement of Cathepsin K inhibitory activity; assay type: biochemical; conditions: Dixon plot, pH 5.5, 37° C.
T1 sequence (P43235 115-329): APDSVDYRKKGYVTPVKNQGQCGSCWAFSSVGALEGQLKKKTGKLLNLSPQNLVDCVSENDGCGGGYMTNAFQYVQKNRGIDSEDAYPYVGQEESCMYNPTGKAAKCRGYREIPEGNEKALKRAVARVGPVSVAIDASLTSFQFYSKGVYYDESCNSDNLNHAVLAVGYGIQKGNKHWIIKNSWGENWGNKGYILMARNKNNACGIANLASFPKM
Description: (i) Measurement of Cathepsin K Inhibitory Activity
65 μL of Cathepsin K enzyme reaction buffer (50 mmol/L of 2-(N-morpholino)ethanesulfonate, 2 mmol/L of ethylenediamine tetraacetate (EDTA) and 4 mmol/L of dithiothreitol (DTT) were mixed to adjust to pH 5.5), 5 μL of cysteine protease inhibitor solution of several concentrations, 20 μL of synthesized substrate (t-butyloxycarbonyl-L-alanyl-glycyl-L-prolyl-L-arginine-4-methyl-chromanyl-7-amide) solution of several concentrations and 10 μL of cathepsin K enzyme solution were mixed and the increase of fluorescence intensity when reacted at 37° C. was measured (λ ex (excitation wavelength)=355 nm, λ em (fluorescence wavelength)=460 nm). As to the substrate and the compound of the present invention, enzyme reactions were carried out in combination of several appropriate concentrations and Dixon plotting was prepared, to define the absolute value of X-coordinate of the intersection point of the graph as Ki value.

Chain of cathepsin S (P25774 115-331, species assumed): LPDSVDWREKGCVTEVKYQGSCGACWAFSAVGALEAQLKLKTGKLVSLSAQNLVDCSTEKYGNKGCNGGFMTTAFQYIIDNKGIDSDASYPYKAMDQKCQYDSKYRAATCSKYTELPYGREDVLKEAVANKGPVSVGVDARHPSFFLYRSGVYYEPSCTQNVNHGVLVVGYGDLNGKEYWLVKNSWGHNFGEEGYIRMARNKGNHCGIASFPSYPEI

Row | inhibition at 1 µM (cathepsin S) | pKi (Cathepsin K) | Structure (SMILES)
1 | 90% | – | CC(C)C[C@H](NC(=O)[C@H](CC(C)C)NC(=O)OCc1ccccc1)C(=O)Cn1nc(CCc2ccccc2)oc1=O [example 3(17), 2(S)-N-[3(S)-1-(5-oxo-2-(2-phenylethyl)-1,3,4-oxadiazolin-4-yl)-2-oxo-5-methyl-3-hexyl]-2-benzyloxycarbonylamino-4-methylpentanamide]
2 | – | 7.68 | CC(C)C[C@H](NC(=O)[C@H](CC(C)C)NC(=O)OCc1ccccc1)C(=O)Cn1nnc(-c2c(F)c(F)c(F)c(F)c2F)n1 [example 1(40), 2(S)-N-[3(S)-1-(5-(perfluorophenyl)tetrazol-2-yl)-2-oxo-5-methyl-3-hexyl]-2-benzyloxycarbonylamino-4-methylpentanamide]
3 | – | 7.44 | CC(C)C[C@H](NC(=O)[C@H](CC(C)C)NC(=O)OCc1ccccc1)C(=O)Cn1c(-c2ccc(F)cc2)noc1=O [example 3(7), 2(S)-N-[3(S)-1-(5-oxo-3-(4-fluorophenyl)-1,2,4-oxadiazolin-4-yl)-2-oxo-5-methyl-3-hexyl]-2-benzyloxycarbonylamino-4-methylpentanamide]

From US7390804B2, “N-containing five-membered ring compounds and pharmaceutical agents comprising the same as active ingredient” (Ono Pharmaceutical Co., Ltd., priority 2000, dated 2008)
